From the NIST ThermoML archive (doi:10.1016/j.fluid.2017.12.031)
“And” between values parts separate entries of the source, which are not always exact repeats. Equal entries are not always repeated.

What was measured:
[1] = 313.15 K; Liquid; Closed cell (Static) method
[2] = excess molar enthalpy (molar enthalpy of mixing); xn = mol fraction of the nth substance listed; conditions: 101 kPa, Liquid, Flow calorimetry

Cc1ccc(C)c(C)c1 [1,2,4-trimethylbenzene]
Conditions | vapor or sublimation pressure [kPa]
[1] | 0.73

Cc1ccc(C)c(C)c1 [1,2,4-trimethylbenzene] + CCCC(C)O
excess molar enthalpy [kcal/mol], [2]
Conditions | 298.15 K | 313.15 K
x2 = 0 | 0 | 0
x2 = 0.0499 | 0.144 | 0.149
x2 = 0.0987 | – | 0.237
x2 = 0.1012 | 0.218 | –
x2 = 0.149 | 0.264 | 0.295
x2 = 0.1982 | – | 0.334
x2 = 0.2006 | 0.297 | –
x2 = 0.2487 | 0.322 | –
x2 = 0.2509 | – | 0.361
x2 = 0.298 | 0.338 | –
x2 = 0.3002 | – | 0.382
x2 = 0.3485 | 0.35 | –
x2 = 0.3507 | – | 0.392
x2 = 0.3979 | 0.358 | 0.399
x2 = 0.4482 | 0.36 | –
x2 = 0.4504 | – | 0.4
x2 = 0.4996 | 0.356 | 0.397
x2 = 0.5476 | – | 0.386
x2 = 0.5496 | 0.349 | –
x2 = 0.6005 | – | 0.369
x2 = 0.6006 | 0.334 | –
x2 = 0.6482 | – | 0.346
x2 = 0.6502 | 0.313 | –
x2 = 0.6987 | – | 0.318
x2 = 0.6988 | 0.289 | –
x2 = 0.7479 | – | 0.285
x2 = 0.748 | 0.259 | –
x2 = 0.7978 | – | 0.243
x2 = 0.7979 | 0.22 | –
x2 = 0.8481 | – | 0.194
x2 = 0.8482 | 0.176 | –
x2 = 0.8989 | – | 0.138
x2 = 0.899 | 0.124 | –
x2 = 0.9501 | – | 0.0718
x2 = 0.9502 | 0.0647 | –

Cc1ccc(C)c(C)c1 [1,2,4-trimethylbenzene] + CCCCCO
excess molar enthalpy [kcal/mol], [2]
Conditions | 298.15 K | 313.15 K
x2 = 0 | 0 | 0
x2 = 0.0503 | 0.124 | 0.139
x2 = 0.0995 | 0.175 | 0.207
x2 = 0.15 | 0.204 | 0.248
x2 = 0.1995 | 0.22 | 0.273
x2 = 0.2501 | 0.233 | –
x2 = 0.2502 | – | 0.289
x2 = 0.2997 | 0.241 | 0.297
x2 = 0.3481 | 0.243 | 0.3
x2 = 0.3998 | 0.24 | 0.3
x2 = 0.4481 | 0.234 | –
x2 = 0.4482 | – | 0.295
x2 = 0.4995 | 0.223 | 0.283
x2 = 0.5495 | 0.21 | –
x2 = 0.5496 | – | 0.268
x2 = 0.5985 | 0.194 | –
x2 = 0.5986 | – | 0.25
x2 = 0.6482 | 0.175 | 0.227
x2 = 0.6985 | 0.153 | –
x2 = 0.6986 | – | 0.203
x2 = 0.7494 | 0.129 | –
x2 = 0.7495 | – | 0.173
x2 = 0.7991 | 0.104 | 0.142
x2 = 0.8492 | 0.0777 | 0.108
x2 = 0.8997 | 0.0527 | 0.0729
x2 = 0.9505 | 0.0253 | 0.0354

C=CCCCC [hex-1-ene]
Conditions | vapor or sublimation pressure
[1] | 44.91 kPa and 44.95 kPa

C=CCCCC [hex-1-ene] + CCCC(C)O
[2], x2 = 0
Conditions | excess molar enthalpy [kcal/mol]
298.15 K | 0
313.15 K | 0

C=CCCCC [hex-1-ene] + CCCCCO
excess molar enthalpy [kcal/mol], [2]
Conditions | 298.15 K | 313.15 K
x2 = 0 | 0 | 0
x2 = 0.0506 | – | 0.121
x2 = 0.0507 | 0.095 | –
x2 = 0.1005 | – | 0.159
x2 = 0.1006 | 0.119 | –
x2 = 0.152 | – | 0.179
x2 = 0.1522 | 0.134 | –
x2 = 0.2027 | – | 0.192
x2 = 0.203 | 0.143 | –
x2 = 0.2528 | – | 0.195
x2 = 0.2531 | 0.148 | –
x2 = 0.3021 | – | 0.198
x2 = 0.3022 | 0.151 | –
x2 = 0.3526 | – | 0.193
x2 = 0.353 | 0.15 | –
x2 = 0.4026 | – | 0.19
x2 = 0.403 | 0.146 | –
x2 = 0.4519 | – | 0.183
x2 = 0.4523 | 0.138 | –
x2 = 0.5026 | – | 0.172
x2 = 0.503 | 0.129 | –
x2 = 0.5524 | – | 0.159
x2 = 0.5529 | 0.118 | –
x2 = 0.6035 | – | 0.144
x2 = 0.604 | 0.106 | –
x2 = 0.6519 | – | 0.127
x2 = 0.6523 | 0.0912 | –
x2 = 0.7019 | 0.0776 | 0.109
x2 = 0.7526 | 0.0629 | 0.0888
x2 = 0.8008 | 0.0478 | –
x2 = 0.8025 | – | 0.0681
x2 = 0.8482 | 0.0348 | –
x2 = 0.8517 | – | 0.0505
x2 = 0.9019 | – | 0.0316
x2 = 0.902 | 0.0208 | –
x2 = 0.9513 | 0.00908 | 0.0139

CCCCCO [pentan-1-ol]
Conditions | vapor or sublimation pressure
[1] | 0.913 kPa and 0.918 kPa

CCCCCO [pentan-1-ol] + C=CCCCC
[2], x1 = 1
Conditions | excess molar enthalpy [kcal/mol]
298.15 K | 0
313.15 K | 0

CCCCCO [pentan-1-ol] + Cc1ccc(C)c(C)c1
[2], x1 = 1
Conditions | excess molar enthalpy [kcal/mol]
298.15 K | 0
313.15 K | 0

CCCC(C)O (configuration not stated) [pentan-2-ol]
Conditions | vapor or sublimation pressure
[1] | 2.281 kPa and 2.268 kPa

CCCC(C)O (configuration not stated) [pentan-2-ol] + C=CCCCC
excess molar enthalpy [kcal/mol], [2]
Conditions | 298.15 K | 313.15 K
x1 = 0.05 | – | 0.141
x1 = 0.0503 | 0.117 | –
x1 = 0.0999 | 0.158 | 0.196
x1 = 0.1511 | 0.183 | –
x1 = 0.1512 | – | 0.229
x1 = 0.2015 | 0.202 | –
x1 = 0.2017 | – | 0.254
x1 = 0.2513 | 0.216 | –
x1 = 0.2516 | – | 0.266
x1 = 0.3027 | 0.225 | –
x1 = 0.3028 | – | 0.277
x1 = 0.3512 | 0.23 | –
x1 = 0.3513 | – | 0.282
x1 = 0.4032 | 0.234 | –
x1 = 0.4034 | – | 0.282
x1 = 0.4509 | – | 0.278
x1 = 0.4525 | 0.234 | –
x1 = 0.5014 | – | 0.271
x1 = 0.503 | 0.23 | –
x1 = 0.5513 | – | 0.262
x1 = 0.5529 | 0.222 | –
x1 = 0.6005 | – | 0.248
x1 = 0.6018 | 0.21 | –
x1 = 0.6523 | 0.194 | 0.227
x1 = 0.702 | 0.175 | 0.205
x1 = 0.751 | 0.151 | 0.18
x1 = 0.8004 | 0.123 | –
x1 = 0.8012 | – | 0.149
x1 = 0.85 | 0.0935 | –
x1 = 0.8506 | – | 0.115
x1 = 0.9007 | 0.0574 | –
x1 = 0.9012 | – | 0.0742
x1 = 0.9507 | 0.0268 | –
x1 = 0.9509 | – | 0.0371
x1 = 1 | 0 | 0

CCCC(C)O (configuration not stated) [pentan-2-ol] + Cc1ccc(C)c(C)c1
[2], x1 = 1
Conditions | excess molar enthalpy [kcal/mol]
298.15 K | 0
313.15 K | 0
